Measured values published in ChEMBL document CHEMBL1201862, “PubChem BioAssay data set” (2004).
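How tested: cells in 96-well plates exposed to compound for 48 hours at five concentrations. Abbreviation: GI50, concentration required for 50% inhibition of growth.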 The source made the active and inactive calls. Rule as the data show it: active = GI50 up to about 1.1 µM and inactive = higher.

What was measured:
Test in all cases: NCI anticancer screen, dose series, 48 h
HCC 2998 = test system: HCC 2998
SF-295 = test system: SF-295
NCI-H226 = test system: NCI-H226
SK-MEL-5 = test system: SK-MEL-5
NCI-H460 = test system: NCI-H460
ACHN = test system: ACHN
KM12 = test system: KM12
RXF 393 = test system: RXF 393
UACC-257 = test system: UACC-257
TK-10 = test system: TK-10
OVCAR-3 = test system: OVCAR-3
A498 = test system: A498
OVCAR-8 = test system: OVCAR-8
LOX IMVI = test system: LOX IMVI
SNB-75 = test system: SNB-75
SN12C = test system: SN12C
SR = test system: SR

| SMILES | GI50 (HCC 2998) | GI50 (SF-295) | GI50 (NCI-H226) | GI50 (SK-MEL-5) | GI50 (NCI-H460) | GI50 (ACHN) | GI50 (KM12) | GI50 (RXF 393) | GI50 (UACC-257) | GI50 (TK-10) | GI50 (OVCAR-3) | GI50 (A498) | GI50 (OVCAR-8) | GI50 (LOX IMVI) | GI50 (SNB-75) | GI50 (SN12C) | GI50 (SR) |
| --- | --- | --- | --- | --- | --- | --- | --- | --- | --- | --- | --- | --- | --- | --- | --- | --- | --- |
| CCOc1ccc(/N=C/c2ccc3ccccc3n2)cc1 | > 100 µM (inactive) | > 100 µM (inactive) | > 100 µM (inactive) | > 100 µM (inactive) | > 100 µM (inactive) | > 100 µM (inactive) | > 100 µM (inactive) | > 100 µM (inactive) | > 100 µM (inactive) | > 100 µM (inactive) | > 100 µM (inactive) | > 100 µM (inactive) | > 100 µM (inactive) | > 73.5 µM (inactive) | > 35.3 µM (inactive) | > 100 µM (inactive) |  |
| CC1=NN(C(=O)Cc2ccccc2)C(=O)/C1=C/c1c(O)ccc2ccccc12 | > 100 µM (inactive) | 34.1 µM (inactive) | 27 µM (inactive) | 96.6 µM (inactive) | 69 µM (inactive) | 28.1 µM (inactive) | 68.5 µM (inactive) |  | 37.5 µM (inactive) | 56.9 µM (inactive) | 48.6 µM (inactive) |  | 37.2 µM (inactive) | 27.5 µM (inactive) | 29.6 µM (inactive) | 34.1 µM (inactive) | 45.7 µM (inactive) |
| COC1OC(CO)C(O)C(OC(C)=O)C1NC(=O)N(CCCl)N=O (stereo not drawn) | > 100 µM (inactive) | 42.7 µM (inactive) | > 100 µM (inactive) | > 100 µM (inactive) | 83.6 µM (inactive) | > 100 µM (inactive) | > 100 µM (inactive) | > 100 µM (inactive) | > 100 µM (inactive) | > 100 µM (inactive) | > 100 µM (inactive) | > 100 µM (inactive) | > 100 µM (inactive) | 55 µM (inactive) | 46 µM (inactive) | > 100 µM (inactive) |  |
| Cc1cccc(NC(=O)/C(=N\NC(C)(C)C)C2NC(=S)NC2=O)c1C (stereo not drawn) | > 100 µM (inactive) | > 100 µM (inactive) |  | > 100 µM (inactive) | > 100 µM (inactive) | > 100 µM (inactive) | > 100 µM (inactive) |  | > 100 µM (inactive) | > 100 µM (inactive) | > 100 µM (inactive) | > 100 µM (inactive) | > 100 µM (inactive) |  |  |  |  |
| O=C1Nc2ccc([N+](=O)[O-])cc2/C1=N/Nc1ccc([N+](=O)[O-])cc1 |  | 11.8 µM (inactive) | 2.72 µM (inactive) | 12.2 µM (inactive) | 12.8 µM (inactive) | 22.3 µM (inactive) | 12.4 µM (inactive) | 13.7 µM (inactive) | 21.1 µM (inactive) | 24.8 µM (inactive) | 20.1 µM (inactive) | 59.3 µM (inactive) | 13.8 µM (inactive) | 27.5 µM (inactive) | 40.9 µM (inactive) |  | 43.4 µM (inactive) |
| CCN1CC2(C)CC[C@@H](OC)C34[C@@H]2[C@H](OC(C)=O)C2(OCO[C@@]25C[C@H](OC)C2C[C@]3(O)[C@@H]5[C@H]2O)[C@H]14 | > 100 µM (inactive) | > 100 µM (inactive) | > 100 µM (inactive) |  | > 100 µM (inactive) |  | > 100 µM (inactive) | 15.8 µM (inactive) | > 100 µM (inactive) | > 100 µM (inactive) | > 100 µM (inactive) |  | > 100 µM (inactive) | > 100 µM (inactive) | > 100 µM (inactive) | > 100 µM (inactive) | > 100 µM (inactive) |
| CCc1cccc(CC)c1NC(=O)C1=C(C)NC(C)=C(C(=O)Nc2c(CC)cccc2CC)C1c1ccc([N+](=O)[O-])cc1 | 36.2 µM (inactive) | 15.5 µM (inactive) | 26.1 µM (inactive) | 15.1 µM (inactive) | 17.5 µM (inactive) | 27.4 µM (inactive) | 18 µM (inactive) | 17.1 µM (inactive) | 15.4 µM (inactive) | 30.4 µM (inactive) | 32.1 µM (inactive) | 19 µM (inactive) | 20.4 µM (inactive) | 30.9 µM (inactive) | 24.5 µM (inactive) | 46.5 µM (inactive) |  |
| O=C1c2ccccc2C(=O)N1CCN(CCN1C(=O)c2ccccc2C1=O)Cc1ccccc1 |  | > 100 µM (inactive) |  | > 100 µM (inactive) | > 100 µM (inactive) | > 100 µM (inactive) | > 100 µM (inactive) | > 100 µM (inactive) | > 100 µM (inactive) | > 100 µM (inactive) | > 100 µM (inactive) | > 100 µM (inactive) | > 100 µM (inactive) | > 100 µM (inactive) | > 10 µM (inactive) | > 100 µM (inactive) | > 100 µM (inactive) |
| Cc1nnc2n1N=C(c1ccccc1)C(c1ccccc1)S2 (stereo not drawn) | 34.8 µM (inactive) | 62.4 µM (inactive) |  | 48.9 µM (inactive) | 34.6 µM (inactive) | 33.2 µM (inactive) | 42.1 µM (inactive) | 36.1 µM (inactive) | 67.1 µM (inactive) | > 100 µM (inactive) | 36.9 µM (inactive) | 64 µM (inactive) | 39.4 µM (inactive) | 45.2 µM (inactive) | 17.8 µM (inactive) | 59.6 µM (inactive) |  |
| BrC1=CC=C2NCCCCCC/N=C3\C=CC(Br)=CC=C3NCCCCCC/N=C\2C=C1 | > 25.5 µM (inactive) | > 25.5 µM (inactive) | > 25.5 µM (inactive) | > 25.5 µM (inactive) | > 25.5 µM (inactive) | > 25.5 µM (inactive) | > 25.5 µM (inactive) | > 25.5 µM (inactive) | > 25.5 µM (inactive) | > 25.5 µM (inactive) | > 25.5 µM (inactive) | > 25.5 µM (inactive) | > 25.5 µM (inactive) | > 25.5 µM (inactive) | > 25.5 µM (inactive) | > 25.5 µM (inactive) |  |
| O=C(O)C1CCc2nnc(-c3ccccc3)n21 (stereo not drawn) | > 100 µM (inactive) |  | > 100 µM (inactive) | > 100 µM (inactive) | > 100 µM (inactive) | > 100 µM (inactive) | > 100 µM (inactive) | > 100 µM (inactive) | > 100 µM (inactive) | > 100 µM (inactive) | > 100 µM (inactive) | > 100 µM (inactive) | > 100 µM (inactive) |  | > 100 µM (inactive) | > 100 µM (inactive) | > 100 µM (inactive) |
| C=C(/C=C/C=C(\CO)CCC=C(C)C)[C@H]1CCC2([C@H](CCCO)/C(=C(/C)C=O)CC[C@]2(C)O)[C@H]1O (stereo partly drawn) | > 100 µM (inactive) | 21.2 µM (inactive) |  | > 100 µM (inactive) | 56.8 µM (inactive) | > 100 µM (inactive) | > 100 µM (inactive) |  | > 100 µM (inactive) | 82 µM (inactive) | > 100 µM (inactive) | > 100 µM (inactive) | > 100 µM (inactive) | 54.2 µM (inactive) | 58.6 µM (inactive) |  |  |
| C[C@]12CCC(=O)C=C1CC[C@@H]1C2CC[C@]2(C)c3nn(-c4ccccc4)nc3CC12 (stereo partly drawn) | > 100 µM (inactive) | > 100 µM (inactive) | > 100 µM (inactive) | > 100 µM (inactive) | > 100 µM (inactive) | > 100 µM (inactive) | > 100 µM (inactive) | > 100 µM (inactive) | > 100 µM (inactive) | > 100 µM (inactive) | > 100 µM (inactive) | > 100 µM (inactive) | > 100 µM (inactive) | > 100 µM (inactive) | > 100 µM (inactive) | > 100 µM (inactive) |  |
| CCCCOC(=O)C1C2CCC(O2)C1C(=O)OCCCC (stereo not drawn) | > 62.7 µM (inactive) | > 100 µM (inactive) | > 100 µM (inactive) | > 100 µM (inactive) | 4.17 µM (inactive) | > 100 µM (inactive) | > 100 µM (inactive) | > 61.9 µM (inactive) | > 55.1 µM (inactive) | > 100 µM (inactive) | > 100 µM (inactive) | > 100 µM (inactive) | > 100 µM (inactive) | > 44.8 µM (inactive) | > 100 µM (inactive) | > 73.3 µM (inactive) |  |
| Cc1ccccc1NC(=O)C(=O)CC(=O)c1c(C)[n+]([O-])c2ccccc2[n+]1[O-] | > 100 µM (inactive) | > 100 µM (inactive) | > 100 µM (inactive) |  | > 100 µM (inactive) | > 100 µM (inactive) | 59.8 µM (inactive) | > 100 µM (inactive) | 16 µM (inactive) |  | > 100 µM (inactive) | > 100 µM (inactive) | > 100 µM (inactive) |  | 40 µM (inactive) | > 100 µM (inactive) | 0.0278 µM (active) |
| COc1ccc2ccccc2c1C1OC(=O)c2ccccc21 (stereo not drawn) | > 100 µM (inactive) | 56.2 µM (inactive) | > 100 µM (inactive) | > 100 µM (inactive) |  | > 100 µM (inactive) | 56.6 µM (inactive) |  | 91 µM (inactive) | > 100 µM (inactive) | > 100 µM (inactive) | > 100 µM (inactive) | > 100 µM (inactive) | > 100 µM (inactive) |  | > 100 µM (inactive) |  |
| COc1ccccc1-n1c(NN)nc2ccc(Br)cc2c1=O | 41.7 µM (inactive) | 34.5 µM (inactive) | 31 µM (inactive) | 19.3 µM (inactive) | 42.8 µM (inactive) | 36.5 µM (inactive) | 38.6 µM (inactive) | 30.4 µM (inactive) | 24.4 µM (inactive) | 28.4 µM (inactive) | 51.2 µM (inactive) |  | 34 µM (inactive) | 27.9 µM (inactive) | 34.1 µM (inactive) | 57.9 µM (inactive) | 24.9 µM (inactive) |
| CC1(C)CC23C(=O)N(c4ccccc4)C(Nc4ccccc4)=NC2=CC(C#N)=C(C#N)C3O1 (stereo not drawn) | 67.1 µM (inactive) | 46.7 µM (inactive) | 26.4 µM (inactive) | 28.1 µM (inactive) | 43.8 µM (inactive) | 28.8 µM (inactive) | 46.6 µM (inactive) | 15.2 µM (inactive) | 43.3 µM (inactive) | > 100 µM (inactive) | > 100 µM (inactive) | 26.4 µM (inactive) | 99.5 µM (inactive) | 64.4 µM (inactive) | 48.8 µM (inactive) | 34.8 µM (inactive) |  |
